Columns and labels:
Assay type in all cases: biochemical
Settings in all cases: at 10 μM; single dose, triplicate
MMP-1 = MMP-1 fluorometric FRET protease assay
MMP-8 = MMP-8 fluorometric FRET protease assay
MMP-2 = MMP-2 fluorometric FRET protease assay
MMP-9 = MMP-9 fluorometric FRET protease assay
MMP-12 = MMP-12 fluorometric FRET protease assay
MMP-7 = MMP-7 fluorometric FRET protease assay
MMP-3 = MMP-3 fluorometric FRET protease assay
MMP-14 = MMP-14 fluorometric FRET protease assay

O=C(O)CCCOc1cccc(CNC(=O)C#Cc2cn(Cc3ccc(C(=O)O)cc3)c(=O)[nH]c2=O)c1 [Compound 4, 4-({5-[2-({[3-(3-carboxypropoxy)phenyl]methyl}carbamoyl)eth-1-yn-1-yl]-2,4-dioxo-1,2,3,4-tetrahydropyrimidin-1-yl}methyl)benzoic acid]
<50 % inhibition at 10 μM: MMP-1 inhibition (MMP-1) | MMP-8 inhibition (MMP-8) | MMP-2 inhibition (MMP-2) | MMP-9 inhibition (MMP-9) | MMP-12 inhibition (MMP-12) | MMP-7 inhibition (MMP-7) | MMP-3 inhibition (MMP-3) | MMP-14 inhibition (MMP-14)
